Test results: patent US8455398B2, “Amide compounds, preparation methods and uses thereof” (Sinochem Corporation, priority 2008, dated 2013)

How the values were obtained:
cucumber anthracnose = experiment: Fungicidal activity in vivo, cucumber anthracnose; conditions: plants sprayed, inoculated after 24 hours
Method: (§1) Determine the fungicidal activities of the compounds of the present invention against plant diseases, carried by following procedure:
(§2) Determination of Fungicidal Activity In Vivo:
(§3) Compounds were dissolved in acetone, and diluted to required concentration with water containing 0.1% of tween 80. Plants were sprayed by a sprayer. After 24 hours, plants were innoculated and then transferred into a dew chamber for infection. After the infection period normally one week), the plants were scored for disease control.

[1] = test system: diamond backmoth (Plutella xylostella); experiment: Insecticidal activity, spray test, diamond backmoth; format: in vivo; conditions: 600 ppm, mortality after two to three days
Method: (§4) Determination of insecticidal and acaricidal activity of selected compounds were carried out by following procedure:
(§5) Compounds were dissolved in mixed solvent (acetone:methanol=1:1), and diluted to required concentration with water containing 0.1% of tween 80.
(§6) The armyworm (Leucania separata), the second stage Juvenile of diamond backmoth (Plutella xylostella), lesser army worm (Spodoptera exiqua), green peach aphids (Myzus persicae) and mite (Tetranychus cinnabarinus) were used in biological test. The test was employed either spraying by airbrush. A test solution (0.5 ml) was sprayed at the pressure of 10 psi (0.7 kg/cm^2). Percent mortality was determined after two to three days.

[2] = test system: lesser army worm (Spodoptera exiqua); experiment: Insecticidal activity, spray test, lesser armyworm; format: in vivo; conditions: mortality after two to three days
Method: as §4, §5, §6

plant diseases = experiment: Fungicidal activity in vivo against plant diseases (overall); conditions: 400 ppm
Method: as §1, §2, §3

Row | SMILES | control of diamond backmoth [1] [%] | control of lesser armyworm ([2]; 600 ppm) [%] | also measured
1 | Cc1cc(C(=O)NCCNc2ncc(C#N)cc2Cl)ccc1NC(=O)c1cc(Br)nn1-c1ncccc1Cl [83 in Table 96] | – | – | control of cucumber anthracnose (cucumber anthracnose; 400 ppm): 100%
2 | Cc1cc(Cl)cc(C(=O)NCCNc2ccc(C(F)(F)F)cc2Cl)c1NC(=O)c1cc(Br)nn1-c1ncccc1Cl [Table 173-83] | 100 | 100 | –
3 | Cc1cc(Cl)cc(C(=O)NCCNc2ncccc2Cl)c1NC(=O)c1cc(Br)nn1-c1ncccc1Cl [Table 179-83] | 100 | 100 | –
4 | Cc1cc(Cl)cc(C(=O)NCCCNc2ncccc2Cl)c1NC(=O)c1cc(Br)nn1-c1ncccc1Cl [Table 179-199] | 100 | 100 | –
5 | Cc1cc(Cl)cc(C(=O)N2CCN(c3ncccc3Cl)CC2)c1NC(=O)c1cc(Br)nn1-c1ncccc1Cl [Table 179-303] | 100 | 100 | –
6 | Cc1cc(Cl)cc(C(=O)NC(C)CNc2ncccc2Cl)c1NC(=O)c1cc(Br)nn1-c1ncccc1Cl (centres unmarked) [Table 179-304] | 100 | 100 | control of cucumber anthracnose (cucumber anthracnose; 50 ppm): 100%; control of cucumber anthracnose (cucumber anthracnose; 400 ppm): 100%; control of lesser armyworm ([2]; 1 ppm): 100%; control of lesser armyworm ([2]; 10 ppm): 100%
7 | Cc1cc(Cl)cc(C(=O)NCCNc2ncc(C(F)(F)F)cc2Cl)c1NC(=O)c1cc(Br)nn1-c1ncccc1Cl [Table 181-83] | 100 | 100 | control of cucumber anthracnose (cucumber anthracnose; 50 ppm): 100%; control of cucumber anthracnose (cucumber anthracnose; 400 ppm): 100%; control of lesser armyworm ([2]; 0.1 ppm): more than 60%; control of lesser armyworm ([2]; 1 ppm): 100%; control of lesser armyworm ([2]; 10 ppm): 100%
8 | Cc1cc(Cl)cc(C(=O)NCCCNc2ncc(C(F)(F)F)cc2Cl)c1NC(=O)c1cc(Br)nn1-c1ncccc1Cl [Table 181-199] | 100 | 100 | control of lesser armyworm ([2]; 1 ppm): 100%; control of lesser armyworm ([2]; 10 ppm): 100%
9 | Cc1cc(Cl)cc(C(=O)N2CCN(c3ncc(C(F)(F)F)cc3Cl)CC2)c1NC(=O)c1cc(Br)nn1-c1ncccc1Cl [Table 181-303] | 100 | 100 | –
10 | Cc1cc(Cl)cc(C(=O)NC(C)CNc2ncc(C(F)(F)F)cc2Cl)c1NC(=O)c1cc(Br)nn1-c1ncccc1Cl (centres unmarked) [Table 181-304] | 100 | 100 | –
11 | Cc1cc(Cl)cc(C(=O)NCCNc2ncc(C#N)cc2Cl)c1NC(=O)c1cc(Br)nn1-c1ncccc1Cl [Table 182-83] | 100 | 100 | –
12 | Cc1cc(Cl)cc(C(=O)NCCCNc2ncc(C#N)cc2Cl)c1NC(=O)c1cc(Br)nn1-c1ncccc1Cl [Table 182-199] | 100 | 100 | –
13 | Cc1cc(Cl)cc(C(=O)NCCNc2ncc(Cl)cc2Cl)c1NC(=O)c1cc(Br)nn1-c1ncccc1Cl [Table 211-83] | 100 | 100 | control of cucumber anthracnose (cucumber anthracnose; 400 ppm): 100%
14 | Cc1cc(Cl)cc(C(=O)NCCCNc2ncc(Cl)cc2Cl)c1NC(=O)c1cc(Br)nn1-c1ncccc1Cl [Table 211-199] | 100 | 100 | control of lesser armyworm ([2]; 10 ppm): 100%
15 | CNC(=O)c1cc(Cl)cc(C)c1NC(=O)c1cc(Br)nn1-c1ncccc1Cl [chlorantraniliprole] | – | – | fungicidal activity (plant diseases): no fungicidal activity
